Data on 5 molecules can be found in patent US6025467A, “Parathyroid hormone derivatives and their use” (Takeda Chemical Industries, Ltd., priority 1995, dated 2000).

One test has as its system Sprangue Dawley rats. Put plainly: Increase in femur bone weight in rats after subcutaneous dosing. The note with it: 4.9 nmol/kg a day subcutaneously for two weeks; four-week-old male rats; dried right femur weight compared with vehicle group. The class given is in vivo, rat. As for the experimental part:
To four-week-old male Sprangue Dawley rats, the compounds synthesized in Example 1 […], and increases in the bone weight in their femurs were compared with that of a group to which a vehicle (0.15M NaCl, 0.001N hydrochloric acid and 2% heat-inactivated rat serum) was given. After administration, their right femurs were taken out, and the tissues around them were removed. Then, the femurs were dried at 100° C. for 3 hours and weighed.

The target of the next test is PTH receptor (mouse, UniProt P41593). In words: cell-based or functional assay.

Non-standard residues stand in square brackets, D forms with d. Residues, ends and D or L forms follow the SMILES beside them. No end group written: not given here. 2Nal = N[C@@H](Cc1ccc2ccccc2c1)C(=O)O; Aib = CC(C)(N)C(=O)O

The molecule `CC[C@H](C)[C@H](NC(=O)[C@H](CCC(=O)O)NC(=O)[C@H](CO)NC(=O)[C@@H](NC(=O)[C@@H](N)CO)C(C)C)C(=O)N[C@@H](CCC(N)=O)C(=O)N[C@@H](CC(C)C)C(=O)N[C@@H](CCSC)C(=O)N[C@@H](Cc1c[nH]cn1)C(=O)N[C@@H](CCC(=O)O)C(=O)N[C@@H](Cc1ccccc1)C(=O)NCC(=O)N[C@@H](CCCCN)C(=O)N[C@@H](Cc1c[nH]cn1)C(=O)N[C@@H](CC(C)C)C(=O)N[C@@H](CCCCN)C(=O)N[C@@H](CO)C(=O)N[C@@H](CCSC)C(=O)N[C@@H](CCC(=O)O)C(=O)N[C@@H](CCCNC(=N)N)C(=O)N[C@H](C(=O)N[C@@H](CCC(=O)O)C(=O)N[C@@H](Cc1c[nH]c2ccccc12)C(=O)N[C@@H](CC(C)C)C(=O)N[C@@H](CCCNC(=N)N)C(=O)N[C@@H](CCCCN)C(=O)N[C@@H](CCC(N)=O)C(=O)N[C@@H](CC(C)C)C(=O)N[C@@H](CCC(N)=O)C(=O)N[C@@H](CC(=O)O)C(=O)N[C@H](C(=O)N[C@@H](Cc1c[nH]cn1)C(=O)N[C@@H](CC(N)=O)C(=O)N[C@@H](Cc1ccccc1)C(=O)O)C(C)C)C(C)C` [(17), [Glu^10, Phe^11, Lys^16, Gln^27] hPTH(1-34)] (H-SVSEIQLMHEFGKHLKSMERVEWLRKQLQDVHNF-OH) returned a bone increase in the test with Sprangue Dawley rats of 12.4 mg.

In the test with Sprangue Dawley rats, `CC[C@H](C)[C@H](NC(=O)[C@H](CCC(=O)O)NC(=O)[C@H](CO)NC(=O)[C@@H](NC(=O)[C@@H](N)CO)C(C)C)C(=O)N[C@@H](CCC(N)=O)C(=O)N[C@@H](CC(C)C)C(=O)N[C@@H](CCSC)C(=O)N[C@@H](Cc1c[nH]cn1)C(=O)N[C@@H](CC(=O)O)C(=O)N[C@@H](Cc1ccccc1)C(=O)NCC(=O)N[C@@H](CCCCN)C(=O)N[C@@H](Cc1c[nH]cn1)C(=O)N[C@@H](CC(C)C)C(=O)N[C@@H](CCCCN)C(=O)N[C@@H](CCCCN)C(=O)N[C@@H](CCSC)C(=O)N[C@@H](CCC(=O)O)C(=O)N[C@@H](CCCNC(=N)N)C(=O)N[C@H](C(=O)N[C@@H](CCC(=O)O)C(=O)N[C@@H](Cc1c[nH]c2ccccc12)C(=O)N[C@@H](CC(C)C)C(=O)N[C@@H](CCCNC(=N)N)C(=O)N[C@@H](CCCCN)C(=O)N[C@@H](CCC(N)=O)C(=O)N[C@@H](CC(C)C)C(=O)N[C@@H](CCC(N)=O)C(=O)NC(C)(C)C(=O)N[C@H](C(=O)N[C@@H](Cc1c[nH]cn1)C(=O)N[C@@H](CC(N)=O)C(=O)N[C@@H](Cc1ccccc1)C(=O)O)C(C)C)C(C)C` [(19), [Asp^10, Phe^11, Lys^16,17, Gln^2 7, Aib^30] hPTH(1-34)] (H-SVSEIQLMHDFGKHLKKMERVEWLRKQLQ[Aib]VHNF-OH) displayed a bone increase of 16.9 mg.

In the test on Sprangue Dawley rats, `CC[C@H](C)[C@H](NC(=O)[C@H](CCC(=O)O)NC(=O)[C@H](CO)NC(=O)[C@@H](NC(=O)[C@@H](N)CO)C(C)C)C(=O)N[C@@H](CCC(N)=O)C(=O)N[C@@H](CC(C)C)C(=O)N[C@@H](CCSC)C(=O)N[C@@H](Cc1c[nH]cn1)C(=O)N[C@@H](CCC(=O)O)C(=O)N[C@@H](CC(C)C)C(=O)NCC(=O)N[C@@H](CCCN)C(=O)N[C@@H](Cc1c[nH]cn1)C(=O)N[C@@H](CC(C)C)C(=O)N[C@@H](CC(N)=O)C(=O)N[C@@H](CO)C(=O)N[C@@H](CCSC)C(=O)N[C@@H](CCC(=O)O)C(=O)N[C@@H](CCCNC(=N)N)C(=O)N[C@H](C(=O)N[C@@H](CCC(=O)O)C(=O)N[C@@H](Cc1c[nH]c2ccccc12)C(=O)N[C@@H](CC(C)C)C(=O)N[C@@H](CCCNC(=N)N)C(=O)N[C@@H](CCCCN)C(=O)N[C@@H](CCCCN)C(=O)N[C@@H](CC(C)C)C(=O)N[C@@H](CCC(N)=O)C(=O)N[C@@H](CC(=O)O)C(=O)N[C@H](C(=O)N[C@@H](Cc1c[nH]cn1)C(=O)N[C@@H](CC(N)=O)C(=O)N[C@@H](Cc1ccccc1)C(=O)O)C(C)C)C(C)C` [(22), [Glu^10, Orn^13] hPTH(1-34)] returned a bone increase of 14.8 mg.

On to SVSEIQLMHD[2Nal]GKHLNSMERVEWLRKKLQDVHNF [[Asp^10, Ala(2-Naph)^11 ] hPTH(1-34)], for which the “cAMP increase (pmol/well)” value with PTH receptor was determined as 2.65 pmol/well.

Take SVSEIQLMHDLGKHLNSMERVEWLRKKLQDVHNF [[Asp^10 ] hPTH(1-34)]: the “cAMP increase (pmol/well)” value with PTH receptor was 0.6 pmol/well.
